Assay results reported in US20030199494A1, “1,2,3,5-tetrahydrobenzo'c!azepin-4-one derivatives having muscarinic antagonist activity” (priority 2000, published 2003).

What was measured:
Type in all cases: cell-based
[1] = biological target: T1, M2 receptor (Cavia porcellus, UniProt H0VRN8); test: Functional tissue assay, M2 guinea-pig atria (antagonist pA2); details: guinea-pig left atria, paced; antagonist pA2 per method; mean ± spread (n pts)
T1 construct: from tissue; host or cells: guinea-pig left atrium
T1 sequence (H0VRN8 1-466): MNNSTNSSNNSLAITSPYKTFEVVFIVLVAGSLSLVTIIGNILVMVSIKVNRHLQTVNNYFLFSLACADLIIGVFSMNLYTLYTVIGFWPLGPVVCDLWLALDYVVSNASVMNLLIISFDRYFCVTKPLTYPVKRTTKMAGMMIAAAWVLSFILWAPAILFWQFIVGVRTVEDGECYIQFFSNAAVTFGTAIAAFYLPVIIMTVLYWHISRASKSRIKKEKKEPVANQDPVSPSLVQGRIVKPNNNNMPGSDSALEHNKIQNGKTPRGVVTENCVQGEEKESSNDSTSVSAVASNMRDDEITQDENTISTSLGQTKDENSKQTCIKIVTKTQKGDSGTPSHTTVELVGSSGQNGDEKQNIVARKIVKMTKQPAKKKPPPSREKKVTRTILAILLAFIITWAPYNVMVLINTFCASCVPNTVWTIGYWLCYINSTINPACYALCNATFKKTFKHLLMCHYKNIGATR
Text: (§1) Functional Assays of M1, M2 and M3 Receptor Activity
(§2) Initial evaluation of test compounds is by assay of functional tissue responses. This has the advantage that it readily discriminates between agonist partial agonist and antagonist activity
Guinea-pigs are killed by a blow to the back of the head and left atrium removed. The atrium is secured to a pari of stainless steel electrodes by means of a cotton thread and immersed in the organ bath containing gassed Krebs solution with normal Ca^2 + at 32±0.50C. Atria are placed at 2 Hz with square-wave pulses of 0.5 ms pulse width. Isometric contractions are recorded by computer or polygraph.
Following at least 30 min equilibration to allow twitches or tension to stabilize, cumulative concentration-response curves for the muscarinic agonists are constructed. The concentration is increased in half logarithmic increments after the contraction in the presence of each concentration has plateaued Steady-state contractions at each concentration are measured and the inhibition expressed as a percentage of the baseline twitch height in atria and vas deferens or as the maxi contraction in the ileum. […]
Concentration-response curves in the absence and presence of antagonist are measured as described for the agonist studies. […]

[2] = biological target: T2, M3 receptor (Cavia porcellus, UniProt H0W1Z3); test: Functional tissue assay, M3 guinea-pig ileum (antagonist pA2); details: guinea-pig ileum, isometric contraction; antagonist pA2 per method; mean ± spread (n pts)
T2 construct: Sections (2 cm) are cut from the ileum of the killed guinea-pigs; from tissue; host or cells: guinea-pig ileum
Text: as §1, §2
(§3) Sections (2 cm) are cut from the ileum of the killed guinea-pigs, 10 cm from the ileo-caecal junction. One end is attached to a tissue holder/aerator and the other end via a cotton thread to an isometric transducer. The tissue is immersed in gassed normal Ca^2+ Krebs solution at 32±0.5° C. A resting tension of 0.5 g is applied and isometric contractions measured by computer or polygraph.
(§4) Following at least 30 min equilibration to allow twitches or tension to stabilize, cumulative concentration-response curves for the muscarinic agonists are constructed. The concentration is increased in half logarithmic increments after the contraction in the presence of each concentration has plateaued Steady-state contractions at each concentration are measured and the inhibition expressed as a percentage of the baseline twitch height in atria and vas deferens or as the maxi contraction in the ileum. EC50 values for the muscarinic agonists are determined from individual curves as the molar concentration required for 50% inhibition of twitch height or the 50% of maximum contraction (ileum). Geometric mean EC50 values and their 95% confidence limits are calculated.
(§5) A concentration-response curve to the test agonist is established in the absence of antagonist and after achieving the maximum effect, the agonist washed from the bath to restore twitch contractions. Three further concentration-response curves are then obtained in the same manner at approximately 30 min intervals, with the antagonist (Standards—pirenzepine M1, darifenacin M3, methoctramine M2) being introduced to the bath 15 min before each of these subsequent curves.
(§6) Concentration-response curves in the absence and presence of antagonist are measured as described for the agonist studies. The shifts in the concentration-response curves in the presence of antagonist compared with the absence of antagonist are expressed as the dose-ratios (DR) of the EC50 values. pA2 values are then determined from Schild analysis of plots of the mean corrected […] against log molar concentration of antagonist. The slopes of the Schild plots are determined by linear regression and the pA2 values determined from the intercept on the concentration axis (when log(DR−1) is zero). pA2 values are also determined from individual concentrations of antagonist by applying the equations: pA2=log(DR−1) log[B], wherein B is the molar concentration of antagonist.

[3] = tested on: M3 receptor; test: as above; details: ileum versus atria, log10 units
Text: as §1, §2, §3, §4, §5, §6

T2 sequence (H0W1Z3 1-590): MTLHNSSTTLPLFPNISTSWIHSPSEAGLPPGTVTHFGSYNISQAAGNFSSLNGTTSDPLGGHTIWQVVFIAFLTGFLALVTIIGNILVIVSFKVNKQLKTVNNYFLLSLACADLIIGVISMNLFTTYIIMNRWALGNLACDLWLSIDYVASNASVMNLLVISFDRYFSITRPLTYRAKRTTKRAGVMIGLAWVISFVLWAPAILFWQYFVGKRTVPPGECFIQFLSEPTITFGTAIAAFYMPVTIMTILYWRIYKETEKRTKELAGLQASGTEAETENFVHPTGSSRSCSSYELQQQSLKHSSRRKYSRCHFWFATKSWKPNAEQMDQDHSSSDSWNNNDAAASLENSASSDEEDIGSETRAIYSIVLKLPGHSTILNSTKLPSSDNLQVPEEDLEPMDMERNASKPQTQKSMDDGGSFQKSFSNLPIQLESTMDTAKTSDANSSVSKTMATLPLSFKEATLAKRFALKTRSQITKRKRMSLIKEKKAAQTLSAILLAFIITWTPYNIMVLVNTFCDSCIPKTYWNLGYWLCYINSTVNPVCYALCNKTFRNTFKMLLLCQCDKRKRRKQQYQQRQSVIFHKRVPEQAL

| Structure (SMILES) | M2 antagonist pA2 (atria) [1] | M3 (ileum) [2] | Log10 selectivity [3] |
| --- | --- | --- | --- |
| O=C1CN(CCNCc2ccccc2)Cc2ccccc2[C@]1(O)C1CCC1 (stereo in doubt) [Compound 19, 2-[2-(benzylamino)ethyl]-5-cyclobutyl-5-hydroxy-1,3,4,5-tetrahydrobenzo[c]azepin-4-one] | 4.9 ± 0.6 (4 pts) | 6.5 ± 0.4 (3 pts) | 1.6 ± 0.7 |
| O=C1CN(CCCNCc2ccccc2)Cc2ccccc2[C@]1(O)C1CCC1 (stereo in doubt) [Compound 22, 2-[3-(Benzylamino)propyl]-5-cyclobutyl-5-hydroxy-1,2,3,5-tetrahydrobenzo[c]azepin-4-one] | 5.2 ± 0.3 (4 pts) | 6.7 ± 0.4 (4 pts) | 1.5 ± 0.5 |
